Data taken from ChEMBL document CHEMBL2203035, “Synthesis and docking studies of novel antitumor benzimidazoles” (Bioorg Med Chem, 2012).

Assays:
[1] = biological target: Urokinase plasminogen activator surface receptor (Homo sapiens, UniProt Q03405); assay: Binding affinity to uPAR
Raji [2] = assay: Inhibition of tumor promotion in human Raji cells assessed as TPA-induced Epstein-Barr virus early antigen activation at 10 mol ratio/TPA after 48 hrs by indirect immunofluorescence analysis relative to TPA alone; type: functional; set-up: scale not given: the % may be the effect or the level left
Raji [3] = assay: Inhibition of tumor promotion in human Raji cells assessed as TPA-induced Epstein-Barr virus early antigen activation at 1000 mol ratio/TPA after 48 hrs by indirect immunofluorescence analysis relative to TPA alone; type: functional; set-up: scale not given: the % may be the effect or the level left
Raji [4] = assay: Inhibition of tumor promotion in human Raji cells assessed as TPA-induced Epstein-Barr virus early antigen activation at 100 mol ratio/TPA after 48 hrs by indirect immunofluorescence analysis relative to TPA alone; type: functional; set-up: scale not given: the % may be the effect or the level left
Raji [5] = assay: Inhibition of tumor promotion in human Raji cells assessed as TPA-induced Epstein-Barr virus early antigen activation at 500 mol ratio/TPA after 48 hrs by indirect immunofluorescence analysis relative to TPA alone; type: functional; set-up: scale not given: the % may be the effect or the level left
A549 = assay: Cytotoxicity against human A549 cells after 72 hrs by alamar blue assay; type: functional, cell-based; conditions: A549, 72 h
MCF7 = assay: cells; conditions: Homo sapiens, MCF7, 48 h
Description: Cytotoxicity against human MCF7 cells after 48 hrs by sulforhodamine B assay

Urokinase plasminogen activator surface receptor, sequence (Q03405 whole entry): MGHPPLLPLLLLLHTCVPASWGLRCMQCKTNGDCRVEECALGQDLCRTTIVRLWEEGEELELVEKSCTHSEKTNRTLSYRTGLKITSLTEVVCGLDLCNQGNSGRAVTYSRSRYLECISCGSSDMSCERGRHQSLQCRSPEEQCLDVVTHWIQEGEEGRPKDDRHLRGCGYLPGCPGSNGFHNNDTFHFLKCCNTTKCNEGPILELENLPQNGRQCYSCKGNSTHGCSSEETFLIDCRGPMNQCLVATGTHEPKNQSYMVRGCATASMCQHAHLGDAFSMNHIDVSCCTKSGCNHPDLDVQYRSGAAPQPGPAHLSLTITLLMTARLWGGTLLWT

Row | SMILES | Ki [1] [nM] | IC50 (MCF7) [µg/well] | Activity (Raji [2]) [%] | Activity (Raji [3]) [%] | Activity (Raji [4]) [%] | Activity (Raji [5]) [%] | IC50 (A549) [nM]
1 | Nc1nc2ccccc2[nH]c1=O | 20.8 | – | 100 | 12.6 | 78.1 | 46.3 | 9100
2 | Nc1c(-c2nc3ccccc3[nH]2)cc(-c2ccccc2)n1-c1nc2ccccc2[nH]1 | 0.00153 | 1.62 | 100 | 16.3 | 80 | 48.2 | 7700
3 | Nc1c(-c2nc3ccccc3[nH]2)cc(-c2ccccc2)n1Cc1nc2ccccc2[nH]1 | 0.00217 | 0.972 | 100 | 18.7 | 82.6 | 48.3 | 5100
4 | O=C1NC2=Nc3ccccc3N(Cc3nc4ccccc4[nH]3)C2=Nc2ccccc21 | 0.00636 | 1.66 | 100 | 20.5 | 85.6 | 53.1 | 8500
5 | CCOC(=O)Cn1c(CN2C3=Nc4ccccc4C(=O)NC3=Nc3ccccc32)nc2ccccc21 | 0.0017 | 0.934 | 100 | 10.3 | 74.4 | 43.7 | 8400
6 | N#CC(C#N)CC(=O)c1ccccc1 | 0.296 | – | – | – | – | – | 9700
7 | CC1(C)CC[C@]2(C(=O)O)CC[C@]3(C)C(=CC[C@@H]4[C@@]5(C)CC[C@H](O)C(C)(C)[C@@H]5CC[C@]43C)[C@@H]2C1 [OLEANOLIC_ACID] | – | – | 100 | 12.7 | 80 | 30 | –
8 | CC/C(=C(\c1ccccc1)c1ccc(OCCN(C)C)cc1)c1ccccc1 [TAMOXIFEN] | – | 1.82 | – | – | – | – | –

Further lines, with some results ahead:

Row | Ki [1] [nM] | IC50 (MCF7) [µg/well] | SMILES | Activity (Raji [2]) [%] | Activity (Raji [3]) [%] | Activity (Raji [4]) [%] | Activity (Raji [5]) [%] | IC50 (A549) [nM]
9 | 0.0333 | – | N#Cc1cc(-c2ccccc2)n(-c2ccccn2)c1N | – | – | – | – | 32000
10 | 0.00759 | – | N#Cc1cc(-c2ccccc2)n(-c2ccncc2)c1N | – | – | – | – | 10700
11 | 0.00411 | – | N#Cc1cc(-c2ccccc2)n(-c2cccc(Br)c2)c1N | – | – | – | – | 13000
12 | 0.00327 | – | N#Cc1cc(-c2ccccc2)n(-c2ccc(Br)cc2)c1N | – | – | – | – | 4600
13 | 0.00227 | – | N#Cc1cc(-c2ccccc2)n(-c2cccc(Cl)c2)c1N | – | – | – | – | 8000
14 | 0.00329 | – | N#Cc1cc(-c2ccccc2)n(-c2ccc(Cl)cc2)c1N | – | – | – | – | 7700
15 | 0.00302 | 1.28 | N#Cc1cc(-c2ccccc2)n(-c2nc3ccccc3[nH]2)c1N | 100 | 19.7 | 83.5 | 49.6 | 12100
16 | 0.00653 | 0.934 | Nc1c(-c2nc3ccccc3[nH]2)cc(-c2ccccc2)n1-c1ccccn1 | 100 | 15.9 | 79.1 | 47.3 | 8000
17 | 0.012 | 2.12 | Nc1c(-c2nc3ccccc3[nH]2)cc(-c2ccccc2)n1-c1cccc(Br)c1 | 100 | 19.2 | 84 | 49.9 | 13500
18 | 0.011 | 0.82 | Nc1c(-c2nc3ccccc3[nH]2)cc(-c2ccccc2)n1-c1ccc(Br)cc1 | 100 | 18.9 | 83.2 | 48 | 12000
19 | 0.0044 | 1.7 | Nc1c(-c2nc3ccccc3[nH]2)cc(-c2ccccc2)n1-c1cccc(Cl)c1 | 100 | 17.8 | 80.1 | 48.3 | 7000
20 | 0.00445 | 0.934 | Nc1c(-c2nc3ccccc3[nH]2)cc(-c2ccccc2)n1-c1ccc(Cl)cc1 | 100 | 20.1 | 85.6 | 50.3 | 9900
